According to patent US20230345943A1, “METHOD AND PROCESS FOR COMPLETE ELIMINATION OF VARIOUS STEPS OF PEST GROWTH IN PLANTS USING DI[…] BASED ON ETHA[…] AND HYDROGEN PEROXIDE” (priority 2020, published 2023):

Assays:
[1] = system: fungus, bacteria and viruses and plant pests in all stages such as eggs, larva, adults; assay: Spray with wetting agent to control plant pathogens and pests; assay type: in vivo; conditions: 3 liters (active ingredient at least 20%) plus 500 cc of non-ionic fatty amine compounds in 1000 liters of water
Excerpt: For longer durability of Ethaneperoxoic acid based compounds, non-ionic fatty amine compounds (wetting agent) should be used in this method for the first time in two different ways, both within the formulation or added separately to the compound. These compounds cause the Ethaneperoxoic acid that is sprayed on the target to increase the duration of exposure of Ethaneperoxoic acid to the chitin surface of insects due to the reduction of surface tension of water droplets.

Chilo suppressalis = assay: Field protocol against Chilo suppressalis in rice; assay type: in vivo; conditions: six-step protocol, dosage of 1 to 2 in one thousand from transplantation treasury to before harvest
Excerpt: In this invention ethaneperoxoic acid used for the first time to fight with Chilo suppressalis with the below mentioned method: • Step 1: The dosage of 1 in one thousand in the transplantation treasury; • Step 2: At the time of transferring the seedlings to the field with the dosage of 1 in one thousand to fight with the first generation; • Step 3: 10 days after transferring the seedlings to the field with the dosage of 1 in one thousand to fight with the second generation; • Step 4: 30 days after transferring the seedlings to the field with the dosage of 1 in one thousand; • Step 5: 45 days after transferring the seedlings to the field with the dosage of 2 in one thousand and 1 in one thousand to fight with the third generation; • Step 6: before harvesting the rice with the dosage of 2 in one thousand.

CC(=O)OO [ethaneperoxoic acid]
effect in controlling fungus, bacteria and viruses and plant pests in all stages [1]: significant impressive effect | damage due to the Chilo suppressalis (Chilo suppressalis): completely control
